Assay results: US8293788B2, “2-phenylpropionic acid derivatives and pharmaceutical compositions containing them” (priority 2004, dated 2012)

Legend:
[1] = system: human PMNs chemotaxis induced by IL-8; test: IL-8 induced PMN chemotaxis assay; type: cell-based; details: compound at 10^−9M, read-out: PMN migration by IL-8 % of inhibition (10^−9M)
Method: (§1) The compounds of the invention of formula (I) were evaluated in vitro for their ability to inhibit chemotaxis of polymorphonucleate leukocytes (hereinafter referred to as PMNs) and monocytes induced by the fractions of IL-8 and GRO-α and C5a. For this purpose, in order to isolate the PMNs from heparinized human blood, taken from healthy adult volunteers, mononucleates were removed by means of sedimentation on dextran (according to the procedure disclosed by W. I. Ming et al., J. Immunol., 138, 1469, 1987) and red blood cells by a hypotonic solution. The cell vitality was calculated by exclusion with Trypan blue, whilst the ratio of the circulating polymorphonucleates was estimated on the cytocentrifugate after staining with Diff Quick.
In the IL-8 induced chemotaxis assay human recombinant IL-8 (Pepro Tech) was used as stimulating agents in the chemotaxis experiments: the lyophilized protein was dissolved in a volume of HBSS containing 0.2% bovin serum albumin (BSA) so thus to obtain a stock solution having a concentration of 10^−5 M to be diluted in HBSS to a concentration of 10^−9 M, for the chemotaxis assays.
(§2) In the chemotaxis experiments, the PMNs were incubated with the compounds of the invention of formula (I) for 15′ at 37° C. in an atmosphere containing 5% CO2.
(§3) During the chemotaxis assay (according to W. Falket et al., J. Immunol. Methods, 33, 239, 1980) PVP-free filters with a porosity of 5 μm and microchambers suitable for replication were used.
(§4) The compounds of the invention in formula (I) were evaluated at a concentration ranging between 10^−6 and 10^−10 M; for this purpose they were added, at the same concentration, both to the lower pores and the upper pores of the microchamber. Evaluation of the ability of the compounds of the invention of formula (I) to inhibit the chemotaxis of human monocytes was carried out according to the method disclosed by Van Damme J. et al. (Eur. J. Immunol., 19, 2367, 1989).

[2] = system: C5a induced PMNs chemotaxis; test: C5a induced PMN chemotaxis assay; type: cell-based; details: human PMNs; for PMN migration by C5a % of inhibition: tested at 10^−6M; for inhibition at 0.01 µM: compound at 10^−8M, read-out: PMN migration by C5a % of inhibition (10^−8M)
Method: as §1
In the C5a induced chemotaxis essay the fractions hrC5a and hrC5a-desArg (Sigma) were used as stimulating agents in chemotaxis experiments, obtaining practically identical results, Lyophilized C5a was dissolved in a volume of HBSS containing 0.2% BSA so as to obtain a stock solution having a concentration of 10^−5 M, to be diluted in HBSS to a concentration of 10^−9 M, for the chemotaxis assays.
as §2
The chemotactic activity of the C5a was evaluated on human circulating polymorphonucleates (PMNs) resuspended in HBSS at a concentration of 1.5×10^6 PMNs per ml.
as §3, §4

[3] = system: GRO-α induced PMN chemotaxis; test: GRO-α induced PMN chemotaxis assay; type: cell-based; details: human PMNs; for inhibition at 0.01 µM: compound at 10^−8M, read-out: PMN migration by GROα % of inhibition (10^−8M); for PMN migration by GROα % of inhibition: tested at 10^−6M
Method: as §1
GRO-α induced chemotaxis inhibition was evaluated in an analogous assay.
as §2, §3, §4

[4] = Pharmacokinetic profile in male mice after intravenous and oral administration; type: in vivo; details: mouse, plasma; for bioavailability: intravenous and oral administration
Method: The pharmacokinetic profile (t1/2, oral bioavailability, etc) of claimed compounds was evaluated in male mice after intravenous and oral administration. The pharmacokinetic analysis was performed using compounds plasmatic concentrations at different times. The data were evaluated by Kinetica 2000™, Version 3.0 Software [InnaPhase Corporation, World headquarters, 1700 Race Street, Philadelphia, Pa. 19103 USA].

[5] = Protein binding in rat plasma (ultrafiltration); type: in vitro ADME; details: 37° C.
Method: Protein Binding was determined as follows: Duplicate rat plasma samples of each compound at 50 μg/mL concentration were incubated at 37° C. for 20 minutes under gentle shaking. Then samples were ultrafiltrated through Centrifree® micropartition devices by centrifugation at 1500 g for 15 minutes. The ultrafiltrate was subjected to HPLC-MS/MS quantitative analysis (Column Luna C18, 150×2 mm ID 5 μm (Phenomenex), mobile phase: eluent A) 0.02M HCOO^−NH4^+ (pH 4.3 with HCOOH); eluent B) CH3OH).

| Structure (SMILES) | half-life [4] [min] | bioavailability [4] [%] | fraction unbound at 20 min, 50 μg/mL [5] | inhibition at 0.001 µM [1] [%] | PMN migration by C5a % of inhibition [2] | inhibition at 0.01 µM [3] [%] | inhibition at 0.01 µM [2] [%] | PMN migration by GROα % of inhibition [3] |
| --- | --- | --- | --- | --- | --- | --- | --- | --- |
| CC(C)Cc1ccc([C@@H](C)C(N)=O)cc1 [reference compound] | 24 | 35 | 0.016 | 57 ± 12 | Inactive^# | 10 ± 7 |  |  |
| CC(C)Cc1ccc([C@@H](C)C(=O)NS(C)(=O)=O)cc1 [reference compound] | 24 | 80 | 0.0002 | 50 ± 12 | Inactive^# | 10 ± 18 |  |  |
| CC(C)Cc1ccc([C@@H](C)C(=O)NCCCN2CCCCC2)cc1 [reference compound] | 102 | 30 | 0.15 | 44 ± 5 |  | 39 ± 10 | 55 ± 6 |  |
| C[C@@H](C(=O)NCCCN1CCCC1)c1ccc(OS(=O)(=O)C(F)(F)F)cc1.Cl | 144 | 90 | 0.359 | 51 ± 13 |  |  | 67 ± 10 | Inactive^# |

Now from value to compound, other results behind:

| half-life [4] [min] | bioavailability [4] [%] | fraction unbound at 20 min, 50 μg/mL [5] | Structure (SMILES) | inhibition at 0.001 µM [1] [%] | PMN migration by C5a % of inhibition [2] | inhibition at 0.01 µM [3] [%] | inhibition at 0.01 µM [2] [%] | PMN migration by GROα % of inhibition [3] |
| --- | --- | --- | --- | --- | --- | --- | --- | --- |
| 204 | 80 | 0.296 | C[C@@H](C(=O)NCCN1CCCC1)c1ccc(OS(=O)(=O)C(F)(F)F)cc1.Cl | 52 ± 12 |  |  | 65 ± 18 | Inactive^# |
| 138 | 95 | 0.062 | C[C@@H](C(N)=O)c1ccc(OS(=O)(=O)C(F)(F)F)cc1 | 64 ± 2 | Inactive^# | 61 ± 3 |  |  |
| 1480 | ~100 | 0.01 | C[C@@H](C(=O)[N-]S(C)(=O)=O)c1ccc(OS(=O)(=O)C(F)(F)F)cc1.[Na+] | 58 ± 9 | Inactive^# | 61 ± 6 |  |  |
